Earlier results, collected in patent US20240423911A1, “EMULSION COMPOSITION” (AstaReal Co., Ltd., priority 2018, published 2024).

Key:
[1] = Takahashi et al. 2004

In the case of CC1=C(/C=C/C(C)=C/C=C/C(C)=C/C=C/C=C(C)/C=C/C=C(C)/C=C/C2=C(C)C(=O)C(O)CC2(C)C)C(C)(C)CC(O)C1=O (stereo not drawn) [Astaxanthin, 3,3′-dihydroxy-β,β-carotene-4,4′-dione], the “antioxidative activity relative to vitamin E” value (higher than that of vitamin E) is listed as “approximately 1000 times”, the “antioxidative activity relative to β-carotene” value (higher than that of β-carotene) is listed as about 40 times and the mutagenicity [1] is listed as “no mutagenicity has been observed”.
